Assay results taken from patent US20080139463A1, “Use Of [D-Meala]3-[Etval]4-Cyclosporin For The Treatment Of Hepatitis C Infection And Pharmaceutical Composition Comprising Said [D-Meala]3-[Etval]4-Cyclosporin” (priority 2005, published 2008).
Converted amounts (≈) assume the structure as drawn.

Key:
[1] = test system: HCV replicon in MH-14 cells; settings: cited from earlier work; for HCV RNA accumulation inhibited: Northern blot and quantitative RT-PCR, MH-14 cells
[2] = test system: CD4^+ PBMCs; test: Mixed lymphocyte reaction, [3H]-thymidine incorporation; format: cell-based; settings: for immunosuppressive activity (interpretation of Table 2): mixed lymphocyte reaction; for % Stimulation (relative): cyclosporin 1 μg/ml, five days
Experimental: In this assay, cyclosporins were dissolved in ethanol (10 mg/ml). Freshly isolated CD4^+ PBMCs from two healthy donors were mixed subsequent to inactivation by irradiation of one of the populations (stimulator cells; S). […] R) was determined by [^3H]-thymidine incorporation. The assay was conducted reciprocally with the two cell populations, each being inactivated and stimulated in turn. Stimulation (%) of responder cells was calculated by the formula: […] Sample refers to a mixture of stimulator and responder cells. Background represents a control in which only stimulator cells are mixed.

[3] = MTT assay of cytostatic/cytotoxic effect in Huh 5-2 cells; settings: human
Description: Cell density and cytostatic effects were estimated in parallel cultures in regular 96-well plates (Beckton-Dickinson) using the MTT assay (CellTiter 96® AQueous Non-Radioactive Cell Proliferation Assay, Promega). In this assay, 3-(4,5-dimethylthiazol-2-yl)-5-(3-carboxymethoxy-phenyl)-2-(4-sulfophenyl)-2H-tetrazolium (MTS) is bioreduced to a formazan that is quantitated at 498 nm in a plate reader. Formazan production is directly correlated with number of life cells.
(§1) Results from these experiments permitted calculation of EC50 for the different cyclosporins, which is the effective concentration required to inhibit HCV replicon replication by 50%, and of CC50, which is the concentration required that inhibits the proliferation of exponentially growing cells by 50%, and a selectivity index SI, which is the ratio between CC50 and EC50.

[4] = test system: Jc1-Luc virus (full-length chimeric genome between HCV strains J6 and JFH1); test: Antiviral luciferase assay in hepatoma cells infected with recombinant HCV; format: cell-based; settings: infected Huh-7-Lunet and Huh-7.5 cells, 72 hours, FIGS. 1 and 2
Description: The method used hepatoma cells that had been infected with an infectious full length chimeric HCV construct or the same virus that was modified to carry a luciferase receptor gene.
Infectious HCV viruses of full-length chimeric genome between HCV strains J6 and JFH1 (Jc1) were used to inoculate the hepatoma cells of the assays. The construct of Jc1 virus was also modified to obtain a bicistronic genome carrying a luciferase reporter gene (Jc1-Luc).
Assays used either Huh-7-Lunet or Huh-7.5 cells (Lohmann et al., Science 285(5424), (1999), 110-113). Cells were grown in Dulbecco's modified Eagle's Medium (DMEM; Gibco) supplemented with 10% heat-inactivated fetal bovine serum (FCS) (Integro), 1× non-essential amino acids (Gibco), 100 IU/ml penicillin (Gibco), 100 μg/ml streptomycin (Gibco) or 25 μg/ml hygromycin (Gibco) for Huh-mono cells at 37° C. and 5% CO2. For antiviral (replication) assays, Huh-7-Lunet and Huh-7.5 cells were seeded at a density of 2×104 or 4×10^4 cells per well of a 12-well plate. […]
The inhibition of viral replication were estimated by luciferase assay. […] Firefly luciferase activity was measured according to Krieger et al. (J Virol, 75(10), (2001), 4614-4624). […] Finally, luminescence was measured by using a Lumat LB9507 luminometer (Berthold) for 20 samples.

[5] = target: T1, human recombinant cyclophilin A (Homo sapiens, UniProt P62937); test: PPlase activity of cyclophilin A, tight binding inhibitor fit (Garcia-Echverria et al.); format: biochemical; settings: for Et (total enzyme concentration): fit parameter of tight binding equation
T1 construct: purchased Sigma
Experimental: Commercial human recombinant cyclophilin A (Sigma) was used in the assays. PPlase activity of cyclophilins was determined using a chymotrypsin-coupled spectrophotometric assay according to Garcia-Echverria et al. (BBRC, 191, (1993), 70-75). This method is based on the high trans selectivity of chymotrypsin for peptides of the type N-succinyl-ala-ala-pro-phe-p-nitroanilide. The peptides cleavage liberated the para-nitroaniline moiety that could be detected and quantitated at 390 nm. The hydrolysis of the cis form was limited by the rate of cis-trans isomerisation carried out by cyclophilin A. The peptide was made up in a solution of […] LiCl in 2,2,2-trifluoroethanol at 470 mM to enhance the cis conformer peptides population. The assay was performed on the split beam spectrophotometer and the water bath was set at 5° C. Cyclophilin A (7500 pmol/mg total enzyme concentration; Sigma) were dissolved at 20 nM in a buffer (35 mM HEPES and 0.26 mg/ml chymotrypsin (specific activity 50 units/mg), pH 7.8 with KOH) and were incubated for 6 minutes at room temperature followed by 54 minutes in the water bath. […] Then 3.5 ml of the incubated cyclophilin was added to the sample cuvette. […] Peptide was added at 25 μM to initiate the reaction and the change in absorbance was monitored at 10 data points per second. As a control, rates were also determined for a parallel reaction that lacked cyclophilin. These blank rates of peptide hydrolysis (i.e. in the absence of cyclophilin) were subtracted from rates in the presence of cyclophilin A.
The initial rates obtained from the PPlase assays were analysed by first order regression analysis by using first order transformation of the traces of the time course of the change in the absorbance at 390 nm. Total enzyme concentration (Et), the inhibitor dissociation constant (Ki) and the rate constant for the rate limiting reaction was calculated with the software FigSyS (2003, Biosoft) by fitting the data obtained from the regression analysis in the tight binding inhibitor multiprotein equation.
v=k*Et*P−k*(−b−sqrt(b*b−4*c))/2
where b is defined as b=−(Et*P+I+Ki) and c is c=Et*P*I. Once Et, Ki and k were calculated by the computer for a given set of data, a graphic representation of the data was plotted and the line fitted to the points assuming tight inhibitor binding to a single protein, defined by the following equations:
v=K*Et*P−K(B−sqrt(B*B−4*C))/2
where B=Et*P+I+Ki and C=Et*P*I.

[6] = test system: HCV replicon in Huh-9-13 cells; test: HCV replicon clearance and rebound in Huh-9-13 cells; format: cell-based; settings: 0.5 or 1 μg/ml for 7 consecutive passages, then G418 1000 μg/ml for 2 passages; FIG. 3
Experimental: Assays used Huh-9-13 cells, human hepatoma cells (Huh-7) (Lohmann et al., Science 285(5424), (1999), 110-113) Cells were grown in the usual complete medium DMEM without G418 pressure.
RT-PCR were performed on extracts of viral RNA of samples taken at different passage points. The forward and reverse primers used were 5′-[sequence]-3′ and 5′-[sequence]-3′, respectively. The fluorogenic probe was 5′-[sequence]-3′. As an internal control, a plasmid containing part of the neomycin phosphotransferase gene sequence was used. Results were analysed and expressed as a quantity of replicon RNA (ng) per 1'000 cells and used to draft a graph.

[7] = Initial phase I clinical studies, safety of oral doses; format: in vivo; settings: oral doses of 50 to 1600 mg; not dose-related
Experimental: Initial phase I clinical studies were carried out to assess the safety of oral doses of [D-MeAla]^3-[EtVal]^4-CsA, and to determine the pharmacokinetic profile and safety profile of the drug substance. […] These side effects were not dose-related.

[8] = test system: luciferase-containing HCV minireplicon in Huh 5-2 cells
Experimental: (§2) Assays used Huh 5-2 cells that contained a bicistronic RNA encoding a firefly luciferase-ubiquitin-neomycin phosphotransferase fusion protein and HCV proteins NS3-5. The viral sequences originated from an HCV virus of genotype 1b. Cells were cultured in RPMI 1640 medium (Gibco) supplemented with 10% fetal calf serum, 2 mM glutamine (Life Technologies), 1× non-essential amino acids (Life Technologies), 100 u/ml penicillin, 100 μg/ml streptomycin and 250 μg/ml G418 (Geneticin, Life Technologies) at 37° C. and 5% CO2. For antiviral (replication) assays, cells were seeded at a density of 7000 cells/well in 96-well View Plates™ (Packard) in the same medium except for G418. After a 24-h incubation, medium was removed, serial dilutions of test compounds in medium were added, and cells were incubated for an additional 72 h.
Antiviral effects were estimated either by luciferase assay or quantitative RT-PCR. To carry out luciferase assays, medium was removed, and cells were washed with PBS. Subsequent to lysis in 50 μl of Glo-lysis buffer (Promega) for 15 min, 50 μl of Stead-Glo Luciferase Assay Reagent (Promega) were added to cell lysates. Luciferase activity was measured using a luminometer, and the signal from each test well was expressed as a percentage of the signal measured in wells of cultures not exposed to a test compound. […]

[9] = test system: HCV replicon in Huh 5-2 cells; settings: EC50 derived from RNA titers by quantitative RT-PCR; asterisk = lower of two independently determined values
Experimental: as §2
The fluorogenic probe was 5′-[…]-3′.
as §1

T1 sequence (P62937 whole entry): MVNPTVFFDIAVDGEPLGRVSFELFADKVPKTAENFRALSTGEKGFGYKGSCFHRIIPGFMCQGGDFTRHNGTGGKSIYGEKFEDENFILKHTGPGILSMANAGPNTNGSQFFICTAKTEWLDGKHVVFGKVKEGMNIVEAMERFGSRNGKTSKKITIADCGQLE

| Compound | HCV RNA accumulation inhibited [1] | immunosuppressive activity (interpretation of Table 2) [2] | CC50 ([3]; Huh 5-2 cells) [µg/mL] | antiviral activity [4] | k (rate constant for the rate limiting reaction) ([5]; cyclophilin A) [s⁻¹] | Et (total enzyme concentration) [5] [pmol/mg] | outcome of treated cultures in the presence of G418 (rebound phase) [6] | side effects [7] | % Stimulation (relative) ([2]; co-culture R1 × S2) [%] | % Stimulation (relative) ([2]; co-culture R2 × S1) [%] | EC50 (μg/ml) +/− Std. Dev. ([8]; luciferase assay, Huh 5-2 cells, 72 h) [µg/mL] | Selectivity index ([8]; ratio between CC50 and EC50, luciferase and MTT assays) | CC50 [3] [µg/mL] | SI values [9] | Ki ([5]; cyclophilin A, inhibitor 2-50 nM) [nM] | effectiveness in reducing HCV RNA titer ([1]; compared with CsA) | HCV RNA titer reduction ([1]; 1 μg/ml, 7-day exposure) |
| --- | --- | --- | --- | --- | --- | --- | --- | --- | --- | --- | --- | --- | --- | --- | --- | --- | --- |
| C/C=C/C[C@@H](C)C(=O)[C@H]1C(=O)N[C@@H](C(C)C)C(=O)N(C)CC(=O)N(C)[C@@H](CC(C)C)C(=O)N[C@@H](C(C)C)C(=O)N(C)[C@@H](CC(C)C)C(=O)N[C@@H](C)C(=O)N[C@H](C)C(=O)N(C)[C@@H](CC(C)C)C(=O)N(C)[C@@H](CC(C)C)C(=O)N(C)[C@@H](C(C)C)C(=O)N1C [PSC 833] | not | – | – | – | – | – | – | – | – | – | – | – | – | – | – | – | – |
| C/C=C/C[C@@H](C)[C@@H](O)[C@H]1C(=O)N[C@@H](CC)C(=O)N(C)[C@H](C)C(=O)N(CC)[C@@H](C(C)C)C(=O)N[C@@H](C(C)C)C(=O)N(C)[C@@H](CC(C)C)C(=O)N[C@@H](C)C(=O)N[C@H](C)C(=O)N(C)[C@@H](CC(C)C)C(=O)N(C)[C@@H](CC(C)C)C(=O)N(C)[C@@H](C(C)C)C(=O)N1C [[D-MeAla]^3-[EtVal]^4-CsA] | – | essentially devoid of immunosuppressive activity | > 27 | dose-dependent antiviral activity | 0.16 ± 0.0074 | 7500 | the cultures died | Mild and short-lived side effects were observed including nausea, vomiting, abdominal pain, mild headaches | – | – | – | – | – | – | – | – | – |
| C/C=C/C[C@@H](C)[C@@H](O)[C@H]1C(=O)N[C@@H](CC)C(=O)N(C)CC(=O)N(C)[C@@H]([C@@H](C)CC)C(=O)N[C@@H](C(C)C)C(=O)N(C)[C@@H](CC(C)C)C(=O)N[C@@H](C)C(=O)N[C@H](C)C(=O)N(C)[C@@H](CC(C)C)C(=O)N(C)[C@@H](CC(C)C)C(=O)N(C)[C@@H](C(C)C)C(=O)N1C [[MeIle]^4-CsA] | – | essentially devoid of immunosuppressive activity | – | – | 0.17 ± 0.0068 | 7500 | – | – | 84 | 75 | 0.22 (≈ 0.183 µM) | 64 | 14 (≈ 11.6 µM) | 73 | 2.11 ± 0.32 | about equally as effective as CsA | – |
| Cyclosporin A [CsA] | inhibited | – | – | dose-dependent antiviral activity | 0.17 ± 0.0069 | 7500 | – | – | – | – | – | – | – | – | – | – | about 200 fold |
